# Reference: US20260014235A1, “METHODS OF PROMOTING REMYELINATION” (Mallinckrodt Pharmaceuticals Ireland Limited, priority 2019, published 2026)
# Marks after values point to notes of the source that are not given here.
# Tested on: mouse model of cuprizone demylelination
# Test: Remyelination in gray matter (hippocampus) via quantification of PLP, cuprizone/rapamycin mouse model
# Format: in vivo, C57BL/6 mice
# Conditions: 6 weeks treatment after 12 weeks cuprizone co-administered with rapamycin, RCI 10 U/kg
# Method: The hypothesis that repository corticotropin injection (RCI) accelerates remyelination in a mouse model of cuprizone demylelination was tested. C57BL/6 mice were fed 0.3% cuprizone co-administered with rapamycin for 12 weeks to induce demyelination and inhibit spontaneous remyelination. […] Mice were treated for another 6 weeks with RCI, triiodothyronine (T3, positive control), or vehicle (negative control). Remyelination was assayed in gray matter (hippocampus) via quantification of myelin proteolipid protein (PLP) and in white matter (corpus callosum) via p-Phenylenediamine (PPD) staining. […] Of note-increased remyelination was not observed at higher doses of RCI in this rodent model (data not shown).
structure (smiles),measurement,value
"N[C@@H](Cc1cc(I)c(Oc2ccc(O)c(I)c2)c(I)c1)C(=O)O [Positive Control, triiodothyronine]",Mean PLP (% Area Covered),40.8** % Area Covered
